Measurements taken from paper PMC11748363, “Antimicrobial and Antiproliferative Properties of 2‐Phenyl‐N‐(Pyridin‐2‐yl)acetamides” (Chemical Biology & Drug Design, 2025).
Values after ≈ are worked out from the molar mass of the structure shown. Like-named read-outs stand apart in the source and are kept apart here.

How the values were obtained:
[1] = system: Candida albicans CCM 8320, ATCC 24433; experiment: Antifungal microdilution broth MIC, CA
[2] = system: HepG2 cell line; experiment: Cytotoxicity CellTiter 96, HepG2; type: cell-based, human; details: Homo sapiens, HepG2, 24 h, 24 h incubation; ^c compound precipitated in the testing medium; ^d over the limit of tested concentrations
[3] = system: Candida tropicalis CCM 8264, ATCC 750; experiment: Antifungal microdilution broth MIC, CT
[4] = system: Aspergillus flavus CCM 8363; experiment: Antifungal microdilution broth MIC, AFla
[5] = system: Aspergillus fumigatus ATCC 204305; experiment: Antifungal microdilution broth MIC, AF
[6] = system: Lichtheimia corymbifera CCM 8077; experiment: Antifungal microdilution broth MIC, LC
[7] = system: Mycolicibacterium aurum DSM 43999; experiment: Antimycobacterial microdilution broth MIC (resazurin), M. aurum; type: cell-based; details: DSM43999, read-out: MIC M. aurum
[8] = system: Staphylococcus epidermidis CCM 4418, ATCC 12228; experiment: Antibacterial microdilution broth MIC, SE; type: cell-based
[9] = system: Candida parapsilosis CCM 8260, ATCC 22019; experiment: Antifungal microdilution broth MIC, CP; details: Lodderomyces parapsilosis
[10] = system: Mycobacterium tuberculosis H37Ra; experiment: Antimycobacterial microdilution broth MIC (resazurin), Mtb H37Ra; type: cell-based; details: for MIC: Mycobacterium tuberculosis, H37RA, read-out: MIC Mtb H37Ra; for SI (selectivity index): SI = HepG2 IC50 (μM)/MIC MtbH37Ra (μM), calculated for compounds with MIC ≤ 31.25 μg/mL
[11] = system: Trichophyton interdigitale CCM 8377, ATCC 9533; experiment: Antifungal microdilution broth MIC, TI; details: Trichophyton interdigitale
[12] = system: Candida krusei CCM 8271, ATCC 6258; experiment: Antifungal microdilution broth MIC, CK; details: Pichia kudriavzevii
[13] = system: Escherichia coli CCM 3954, ATCC 25922; experiment: Antibacterial microdilution broth MIC, EC; type: cell-based
[14] = system: Enterococcus faecalis CCM 4224, ATCC 29212; experiment: Antibacterial microdilution broth MIC, EF; type: cell-based
[15] = system: Pseudomonas aeruginosa CCM 3955, ATCC 27853; experiment: Antibacterial microdilution broth MIC, PA; type: cell-based
[16] = system: Acinetobacter baumannii DSM 30007, ATCC 19606; experiment: Antibacterial microdilution broth MIC, ACI; type: cell-based
[17] = system: Mycolicibacterium smegmatis DSM 43465; experiment: Antimycobacterial microdilution broth MIC (resazurin), M. smegmatis; type: cell-based; details: DSM43465, read-out: MIC M. smegmatis
[18] = system: Staphylococcus aureus subsp. aureus CCM 4750, ATCC 43300 (MRSA); experiment: Antibacterial microdilution broth MIC, MRSA; type: cell-based; details: Staphylococcus aureus
[19] = system: Staphylococcus aureus CCM 4223, ATCC 29213; experiment: Antibacterial microdilution broth MIC, SA; type: cell-based; details: Staphylococcus aureus
[20] = system: Klebsiella pneumoniae CCM 4415, ATCC 10031; experiment: Antibacterial microdilution broth MIC, KP
[21] = CCM8363, 24 h, read-out: MIC AFla 24h
[22] = CCM8363, 48 h, read-out: MIC AFla 48h
[23] = ATCC204305, 24 h, read-out: MIC AF 24h
[24] = ATCC204305, 48 h, read-out: MIC AF 48h
[25] = CCM8077, 24 h, read-out: MIC LC 24h
[26] = CCM8077, 48 h, read-out: MIC LC 48h

Compound	MIC ([1]; 24 h, read-out: MIC CA 24h)	MIC ([1]; 48 h, read-out: MIC CA 48h)	IC50 [2]	MIC ([3]; 24 h, read-out: MIC CT 24h)	MIC ([3]; 48 h, read-out: MIC CT 48h)	MIC [4, 21]	MIC [4, 22]	MIC [5, 23]	MIC [5, 24]	MIC [6, 25]	MIC [6, 26]	MIC [7]	MIC ([8]; 24 h, read-out: MIC SE 24h)	MIC ([8]; 48 h, read-out: MIC SE 48h)	MIC ([9]; 24 h, read-out: MIC CP 24h)	MIC ([9]; 48 h, read-out: MIC CP 48h)	MIC ([10]; Calculated from MIC (μg/mL))	MIC [10]	MIC ([11]; 72 h, read-out: MIC TI 72h)	MIC ([11]; 120 h, read-out: MIC TI 120h)	also measured
O=C(Cc1cccc(C(F)(F)F)c1)Nc1ccccn1 [Compound 25]	> 500 µM	> 500 µM	724 µM	> 500 µM	> 500 µM	> 500 µM	> 500 µM	> 500 µM	> 500 µM	> 500 µM	> 500 µM	125 µg/mL (≈ 446 µM)	> 500 µM	> 500 µM	> 500 µM	> 500 µM	223 µM	62.5 µg/mL	500 µM (≈ 140 µg/mL)	500 µM (≈ 140 µg/mL)	MIC ([12]; 24 h, read-out: MIC CK 24h): > 500 µM; MIC ([12]; 48 h, read-out: MIC CK 48h): > 500 µM; MIC ([13]; 24 h, read-out: MIC EC 24h): > 500 µM; MIC ([13]; 48 h, read-out: MIC EC 48h): > 500 µM; MIC ([14]; 24 h, read-out: MIC EF 24h): > 500 µM; MIC ([14]; 48 h, read-out: MIC EF 48h): > 500 µM; MIC ([15]; 24 h, read-out: MIC PA 24h): > 500 µM; MIC ([15]; 48 h, read-out: MIC PA 48h): > 500 µM; MIC ([16]; 24 h, read-out: MIC ACI 24h): > 500 µM; MIC ([16]; 48 h, read-out: MIC ACI 48h): > 500 µM; MIC [17]: > 500 µg/mL; MIC ([18]; 24 h, read-out: MIC MRSA 24h): > 500 µM; MIC ([18]; 48 h, read-out: MIC MRSA 48h): > 500 µM; MIC ([19]; 24 h, read-out: MIC SA 24h): > 500 µM; MIC ([19]; 48 h, read-out: MIC SA 48h): > 500 µM; MIC KP 24h [20]: > 500 µM; MIC KP 48h [20]: > 500 µM
O=C(Cc1cccc(C(F)(F)F)c1)Nc1cccc(Cl)n1 [Compound 27]	> 500 µM	> 500 µM	146 µM	> 500 µM	> 500 µM	> 500 µM	> 500 µM	> 500 µM	> 500 µM	> 500 µM	> 500 µM	15.6 µg/mL (≈ 49.7 µM)	250 µM (≈ 78.7 µg/mL)	250 µM (≈ 78.7 µg/mL)	> 500 µM	> 500 µM	99.3 µM	31.2 µg/mL	> 500 µM	> 500 µM	SI (selectivity index) [10]: 1.5; MIC ([12]; 24 h, read-out: MIC CK 24h): > 500 µM; MIC ([12]; 48 h, read-out: MIC CK 48h): > 500 µM; MIC ([13]; 24 h, read-out: MIC EC 24h): > 500 µM; MIC ([13]; 48 h, read-out: MIC EC 48h): > 500 µM; MIC ([14]; 24 h, read-out: MIC EF 24h): > 500 µM; MIC ([14]; 48 h, read-out: MIC EF 48h): > 500 µM; MIC ([15]; 24 h, read-out: MIC PA 24h): > 500 µM; MIC ([15]; 48 h, read-out: MIC PA 48h): > 500 µM; MIC ([16]; 24 h, read-out: MIC ACI 24h): > 500 µM; MIC ([16]; 48 h, read-out: MIC ACI 48h): > 500 µM; MIC [17]: > 500 µg/mL; MIC ([18]; 24 h, read-out: MIC MRSA 24h): > 500 µM; MIC ([18]; 48 h, read-out: MIC MRSA 48h): > 500 µM; MIC ([19]; 24 h, read-out: MIC SA 24h): > 500 µM; MIC ([19]; 48 h, read-out: MIC SA 48h): > 500 µM; MIC KP 24h [20]: > 500 µM; MIC KP 48h [20]: > 500 µM
O=C(Cc1ccc(C(F)(F)F)cc1)Nc1ccccn1 [Compound 28]	> 500 µM	> 500 µM	408 µM	> 500 µM	> 500 µM	> 500 µM	> 500 µM	> 500 µM	> 500 µM	> 500 µM	> 500 µM	> 500 µg/mL	> 500 µM	> 500 µM	> 500 µM	> 500 µM	112 µM	31.2 µg/mL	> 500 µM	> 500 µM	SI (selectivity index) [10]: 3.7; MIC ([12]; 24 h, read-out: MIC CK 24h): > 500 µM; MIC ([12]; 48 h, read-out: MIC CK 48h): > 500 µM; MIC ([13]; 24 h, read-out: MIC EC 24h): > 500 µM; MIC ([13]; 48 h, read-out: MIC EC 48h): > 500 µM; MIC ([14]; 24 h, read-out: MIC EF 24h): > 500 µM; MIC ([14]; 48 h, read-out: MIC EF 48h): > 500 µM; MIC ([15]; 24 h, read-out: MIC PA 24h): > 500 µM; MIC ([15]; 48 h, read-out: MIC PA 48h): > 500 µM; MIC ([16]; 24 h, read-out: MIC ACI 24h): > 500 µM; MIC ([16]; 48 h, read-out: MIC ACI 48h): > 500 µM; MIC [17]: > 500 µg/mL; MIC ([18]; 24 h, read-out: MIC MRSA 24h): > 500 µM; MIC ([18]; 48 h, read-out: MIC MRSA 48h): > 500 µM; MIC ([19]; 24 h, read-out: MIC SA 24h): > 500 µM; MIC ([19]; 48 h, read-out: MIC SA 48h): > 500 µM; MIC KP 24h [20]: > 500 µM; MIC KP 48h [20]: > 500 µM
